According to article PMC3505660, “Application of Collagen-Model Triple-Helical Peptide-Amphiphiles for CD44-Targeted Drug Delivery Systems” (Journal of Drug Delivery, 2012):

Columns and labels:
BJ foreskin fibroblasts = assay: CellTiter-Glo Luminescent Cell Viability Assay (cytotoxicity), BJ; type: cell-based, human; settings: BJ cells, [DOX] = 100 μM, 3 h exposure
Description: (§1) The M14#5 and M14#11 human metastatic melanoma cell lines were generously provided by Dr. Barbara Mueller. The BJ foreskin fibroblasts […] were obtained from the American Type Culture Collection (ATCC) (Cat# CRL-2522). Cell media (Cat# MT10-013-CV) and trypan blue (Cat# ICN1691049) were obtained from Fisher Scientific or CellGro, and all reagents required for cell culture were purchased from Invitrogen. Cells were maintained in DMEM supplemented with 10% fetal bovine serum (Cat# 10437028), 50 units/mL penicillin, and 0.05 mg/mL streptomycin (Cat# 15140163). Cells were cultured with complete medium at 37°C in a humidified atmosphere of 5% CO2 in air. For all experiments cells were harvested from subconfluent (<80%) cultures using a trypsin-EDTA (Cat# 15400054) solution and then resuspended in fresh medium. Preparations of cells with a >90% viability, as determined by trypan blue exclusion, were used.
(§2) The cytotoxicity of all liposomal systems used in this study, as well as free DOX, on the cells was determined using the CellTiter-Glo Luminescent Cell Viability Assay. The M14#5, M14#11, and BJ cells were plated on 96-well tissue cultured treated plates corning at a density of 5 × 10^3 cells per well and incubated for 24 h at 37°C and 5% CO2. The culture medium was then replaced with 100 μL of medium containing various concentrations of each liposomal system or free DOX. […]

[1] = set-up: method as in PMID 8313389, PMID 7865538; settings: cited from earlier work
Description: Potential DOX delivery in vivo, however, is quite different than in vitro when one considers circulation times. […] In ...

[2] = test system: M14#5 human metastatic melanoma cells; assay: CellTiter-Glo Luminescent Cell Viability Assay (cytotoxicity), M14#5; type: cell-based; settings: M14#5 cells, [DOX] = 100 μM, 3 h exposure
Description: as §1, §2

COc1cccc2c1C(=O)c1c(O)c3c(c(O)c1C2=O)C[C@@](O)(C(=O)CO)C[C@@H]3O[C@H]1C[C@H](N)[C@H](O)[C@H](C)O1 [free DOX, doxorubicin]
cell viability (BJ foreskin fibroblasts): 50–60%
clearance of free DOX relative to DOX encapsulated within PEGylated liposomes [1]: 450 times faster
cell viability [2]: 50–60%
